Test results from PMC7956382 (Molecules, 2021).

Test system: muscle nAChR-expressing cells
Format: cell-based, mouse

## α-bungarotoxin [α-Bgt]
  Inhibition of calcium transients: No transients were recorded
